Experimental data: ChEMBL document CHEMBL1158712, “Acetylated aporphine alkaloids from Lysichiton camtschatcense” (J Nat Prod, 2005)

Assays:
[1] = test system: Radical scavenging activity; experiment: Antioxidant activity assessed as DPPH radical scavenging activity after 48 hrs; assay type: functional
[2] = test system: Radical scavenging activity; experiment: Antioxidant activity assessed as DPPH radical scavenging activity after 30 mins; assay type: functional

IC50 [1] [µM]	Structure (SMILES)	Activity [2] [%]
362	COc1cc2c3c(c1OC)-c1ccccc1[C@H](OC(C)=O)[C@H]3N(C(C)=O)CC2	< 10
518	CC(=O)O[C@H]1c2ccccc2-c2c3c(cc4c2[C@@H]1N(C(C)=O)CC4)OCO3	< 10
